Molecular target: wild-type human cardiac sodium channel, hNav1.5 (Homo sapiens, UniProt Q14524)
Experiment: Late INa screening assay (automated whole cell patch clamp, PatchXpress)
Assay type: cell-based
Conditions: compound at 1 μM; HEK293 cells expressing hNav1.5; late INa generated with 10 μM Tefluthrin (or 50 nM ATX II); read-out: LateINa_1 uM (percent block of late INa)
Outline: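 Late sodium current through wild-type human hNav1.5 stably expressed in HEK293 cells (no beta subunits) was recorded by automated whole-cell patch clamp on a PatchXpress 7000A at 24-27° C. Late INa was induced with 10 μM Tefluthrin or 50 nM ATX II. Cells were stepped from −120 mV to −20 mV for 250 ms at 0.1 Hz, and percent block was normalized to current in Na-free extracellular solution.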

Sequence of wild-type human cardiac sodium channel, hNav1.5 (Q14524 whole entry): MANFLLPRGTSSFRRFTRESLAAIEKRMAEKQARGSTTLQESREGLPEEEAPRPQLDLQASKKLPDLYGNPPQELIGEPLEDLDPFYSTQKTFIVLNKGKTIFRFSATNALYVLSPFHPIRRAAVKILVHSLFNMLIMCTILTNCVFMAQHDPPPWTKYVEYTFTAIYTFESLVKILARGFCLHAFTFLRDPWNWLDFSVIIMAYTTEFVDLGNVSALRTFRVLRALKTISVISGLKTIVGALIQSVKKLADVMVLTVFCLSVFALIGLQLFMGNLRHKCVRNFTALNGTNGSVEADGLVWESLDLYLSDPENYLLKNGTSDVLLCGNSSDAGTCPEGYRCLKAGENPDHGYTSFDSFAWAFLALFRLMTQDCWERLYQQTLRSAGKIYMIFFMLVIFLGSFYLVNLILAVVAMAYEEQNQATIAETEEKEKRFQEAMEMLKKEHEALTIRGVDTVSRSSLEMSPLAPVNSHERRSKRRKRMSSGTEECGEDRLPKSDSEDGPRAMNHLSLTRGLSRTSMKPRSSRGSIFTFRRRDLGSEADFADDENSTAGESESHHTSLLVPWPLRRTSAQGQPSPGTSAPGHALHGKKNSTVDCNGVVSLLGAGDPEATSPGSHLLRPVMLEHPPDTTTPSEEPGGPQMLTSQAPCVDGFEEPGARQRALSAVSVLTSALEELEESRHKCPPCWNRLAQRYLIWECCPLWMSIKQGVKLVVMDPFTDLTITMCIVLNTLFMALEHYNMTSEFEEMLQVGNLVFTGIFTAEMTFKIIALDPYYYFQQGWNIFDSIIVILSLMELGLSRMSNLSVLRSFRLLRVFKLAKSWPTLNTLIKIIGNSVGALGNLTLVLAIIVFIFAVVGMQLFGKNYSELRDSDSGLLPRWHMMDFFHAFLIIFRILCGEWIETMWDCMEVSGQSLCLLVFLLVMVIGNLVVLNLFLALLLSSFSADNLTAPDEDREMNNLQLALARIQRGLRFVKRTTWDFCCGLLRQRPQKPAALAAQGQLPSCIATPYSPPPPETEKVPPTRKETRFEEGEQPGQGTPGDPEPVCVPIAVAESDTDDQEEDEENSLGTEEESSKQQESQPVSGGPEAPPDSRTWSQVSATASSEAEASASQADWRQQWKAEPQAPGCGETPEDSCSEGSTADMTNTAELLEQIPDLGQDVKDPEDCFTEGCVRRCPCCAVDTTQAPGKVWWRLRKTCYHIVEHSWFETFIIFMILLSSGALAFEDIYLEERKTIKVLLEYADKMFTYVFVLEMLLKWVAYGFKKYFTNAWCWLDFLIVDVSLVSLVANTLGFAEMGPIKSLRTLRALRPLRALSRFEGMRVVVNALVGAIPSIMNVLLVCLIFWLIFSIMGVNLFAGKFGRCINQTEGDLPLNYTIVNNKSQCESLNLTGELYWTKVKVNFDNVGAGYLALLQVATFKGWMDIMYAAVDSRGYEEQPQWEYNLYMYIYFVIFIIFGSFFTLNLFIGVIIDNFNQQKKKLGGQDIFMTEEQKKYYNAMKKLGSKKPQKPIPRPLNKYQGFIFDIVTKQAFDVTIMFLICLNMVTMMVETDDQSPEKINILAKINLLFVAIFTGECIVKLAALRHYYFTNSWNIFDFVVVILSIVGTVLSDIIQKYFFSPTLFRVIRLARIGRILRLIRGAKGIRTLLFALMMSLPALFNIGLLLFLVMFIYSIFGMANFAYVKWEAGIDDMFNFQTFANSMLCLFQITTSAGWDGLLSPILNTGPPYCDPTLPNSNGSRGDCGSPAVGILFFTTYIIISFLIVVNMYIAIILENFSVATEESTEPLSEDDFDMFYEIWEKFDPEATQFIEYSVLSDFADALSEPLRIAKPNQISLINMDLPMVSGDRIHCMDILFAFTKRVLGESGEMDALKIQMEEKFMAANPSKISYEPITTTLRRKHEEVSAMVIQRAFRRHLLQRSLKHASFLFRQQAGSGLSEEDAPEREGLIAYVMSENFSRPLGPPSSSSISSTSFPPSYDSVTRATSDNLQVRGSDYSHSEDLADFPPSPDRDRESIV

Compound | inhibition at 1 µM
COCC(F)(F)c1nnc2ccc(-c3ccc(Oc4ccc(F)cc4)cc3)cn12 [BHN-138, 3-(1,1-difluoro-2-methoxyethyl)-6-[4-(4-fluorophenoxy)phenyl][1,2,4]triazolo[4,3-a]pyridine] | 42.8%
FC(F)(F)Oc1ccc(-c2ccc3nnc(C(F)(F)COCc4cccnc4)n3c2)cc1 [BHN-139, 3-[1,1-difluoro-2-(pyridin-3-ylmethoxy)ethyl]-6-[4-(trifluoromethoxy)phenyl][1,2,4]triazolo[4,3-a]pyridine] | 15.4%
COC(F)(F)c1nnc2ccc(-c3ccc(OC(F)(F)F)cc3)cn12 [BHN-140, 3-[difluoro(methoxy)methyl]-6-[4-(trifluoromethoxy)phenyl][1,2,4]triazolo[4,3-a]pyridine] | 53.2%
COCCOC(F)(F)c1nnc2ccc(-c3ccc(OC(F)(F)F)cc3)cn12 [BHN-141, 3-[difluoro(2-methoxyethoxy)methyl]-6-[4-(trifluoromethoxy)phenyl][1,2,4]triazolo[4,3-a]pyridine] | 32.5%
CC1(COC(F)(F)c2nnc3ccc(-c4ccc(OC(F)(F)F)cc4)cn23)COC1 [BHN-142, 3-{difluoro[(3-methyloxetan-3-yl)methoxy]methyl}-6-[4-(trifluoromethoxy)phenyl][1,2,4]triazolo[4,3-a]pyridine] | 38.8%
FC(F)(F)Oc1ccc(-c2ccc3nnc(Oc4ccccc4)n3c2)cc1 [BHN-143, 3-phenoxy-6-[4-(trifluoromethoxy)phenyl][1,2,4]triazolo[4,3-a]pyridine] | 81.4%
COCC(F)(F)c1nnc2ccc(-c3ccc(OCC(F)(F)F)nc3)cn12 [BHN-144, 3-(1,1-difluoro-2-methoxyethyl)-6-[6-(2,2,2-trifluoroethoxy)pyridin-3-yl][1,2,4]triazolo[4,3-a]pyridine] | 36.4%
Fc1cc(OC(F)(F)F)ccc1-c1ccc2nnc(C(F)(F)F)n2c1 [BHN-145, 6-[2-fluoro-4-(trifluoromethoxy)phenyl]-3-(trifluoromethyl)[1,2,4]triazolo[4,3-a]pyridine] | 55.3%
Fc1cc(-c2ccc3nnc(C(F)(F)F)n3c2)ccc1OC(F)(F)F [BHN-146, 6-[3-fluoro-4-(trifluoromethoxy)phenyl]-3-(trifluoromethyl)[1,2,4]triazolo[4,3-a]pyridine] | 58.2%
Cc1nc(COC(F)(F)c2nnc3ccc(-c4ccc(OC(F)(F)F)cc4)cn23)no1 [BHN-147, 3-{difluoro[(5-methyl-1,2,4-oxadiazol-3-yl)methoxy]methyl}-6-[4-(trifluoromethoxy)phenyl][1,2,4]triazolo[4,3-a]pyridine] | 29.1%
FC(F)(F)Oc1ccc(-c2ccc3nnc(C(F)(F)OCc4ccccc4)n3c2)cc1 [BHN-148, 3-[(benzyloxy)(difluoro)methyl]-6-[4-(trifluoromethoxy)phenyl][1,2,4]triazolo[4,3-a]pyridine] | 71.7%
FC(F)(F)Oc1ccc(-c2ccc3nnc(C(F)(F)OCc4ccncc4)n3c2)cc1 [BHN-149, 3-[difluoro(pyridin-4-ylmethoxy)methyl]-6-[4-(trifluoromethoxy)phenyl][1,2,4]triazolo[4,3-a]pyridine] | 34%
CN(C)CCOCC(F)(F)c1nnc2ccc(-c3ccc(OC(F)(F)F)cc3)cn12 [BHN-150, 2-(2,2-difluoro-2-{6-[4-(trifluoromethoxy)phenyl][1,2,4]triazolo[4,3-a]pyridin-3-yl}ethoxy)-N,N-dimethylethanamine] | 15.6%
FC(F)(F)c1nnc2ccc(-c3ccc(OCC4CC4)cc3)cn12 [BHN-151, 6-[4-(cyclopropylmethoxy)phenyl]-3-(trifluoromethyl)[1,2,4]triazolo[4,3-a]pyridine] | 43.1%
COc1cc(OC(F)(F)F)ccc1-c1ccc2nnc(C(F)(F)F)n2c1 [BHN-152, 6-[2-methoxy-4-(trifluoromethoxy)phenyl]-3-(trifluoromethyl)[1,2,4]triazolo[4,3-a]pyridine] | 71.8%
FC(F)(F)Oc1ccc(-c2ccc3nnc(C(F)(F)F)n3c2)cc1-c1nnco1 [BHN-153, 6-[3-(1,3,4-oxadiazol-2-yl)-4-(trifluoromethoxy)phenyl]-3-(trifluoromethyl)[1,2,4]triazolo[4,3-a]pyridine] | 17.2%
CC(=O)c1ccc(-c2ccc3nnc(C(F)(F)F)n3c2)cc1 [BHN-154, 1-(4-(3-(trifluoromethyl)-[1,2,4]triazolo[4,3-a]pyridin-6-yl)phenyl)ethanone] | 19.2%
OC(c1nnc2ccc(-c3ccc(OC(F)(F)F)cc3)cn12)C(F)(F)F (stereo not shown) [BHN-155, 2,2,2-trifluoro-1-{6-[4-(trifluoromethoxy)phenyl][1,2,4]triazolo[4,3-a]pyridin-3-yl}ethanol] | 16.2%
N#CCOCC(F)(F)c1nnc2ccc(-c3ccc(OC(F)(F)F)cc3)cn12 [BHN-156, (2,2-difluoro-2-{6-[4-(trifluoromethoxy)phenyl][1,2,4]triazolo[4,3-a]pyridin-3-yl}ethoxy)acetonitrile] | 22.3%

Compound | inhibition at 1 µM
OCCOC(F)(F)c1nnc2ccc(-c3ccc(OC(F)(F)F)cc3)cn12 [BHN-157, 2-(difluoro{6-[4-(trifluoromethoxy)phenyl][1,2,4]triazolo[4,3-a]pyridin-3-yl}methoxy)ethanol] | 18.3%
CC(O)COC(F)(F)c1nnc2ccc(-c3ccc(OC(F)(F)F)cc3)cn12 (stereo not shown) [BHN-158, 1-(difluoro{6-[4-(trifluoromethoxy)phenyl][1,2,4]triazolo[4,3-a]pyridin-3-yl}methoxy)propan-2-ol] | 32.9%
FC(F)(F)Oc1ccc(-c2ccc3nnc(C(F)(F)CCl)n3c2)cc1 [BHN-160, 3-(2-chloro-1,1-difluoroethyl)-6-[4-(trifluoromethoxy)phenyl][1,2,4]triazolo[4,3-a]pyridine] | 62%
FC(F)(F)Oc1ccc(-c2ccc3nnc(C(F)(F)F)n3c2)c2ncccc12 [BHN-161, 5-(trifluoromethoxy)-8-[3-(trifluoromethyl)[1,2,4]triazolo[4,3-a]pyridin-6-yl]quinoline] | 49.5%
CC1(c2ccc(-c3ccc4nnc(C(F)(F)F)n4c3)cc2)OCCO1 [BHN-162, 6-[4-(2-methyl-1,3-dioxolan-2-yl)phenyl]-3-(trifluoromethyl)[1,2,4]triazolo[4,3-a]pyridine] | 29.9%
FC(F)(F)c1nnc2ccc(C#Cc3ccccc3)cn12 [BHN-163, 6-(phenylethynyl)-3-(trifluoromethyl)[1,2,4]triazolo[4,3-a]pyridine] | 57.3%
FC(F)(F)Oc1ccc(-c2ccc3nnc(C(F)(F)F)n3c2)cc1Cl [BHN-164, 6-[3-chloro-4-(trifluoromethoxy)phenyl]-3-(trifluoromethyl)[1,2,4]triazolo[4,3-a]pyridine] | 50.7%
CC(O)C(F)(F)c1nnc2ccc(-c3ccc(OC(F)(F)F)cc3)cn12 (stereo not shown) [BHN-165, 1,1-difluoro-1-{6-[4-(trifluoromethoxy)phenyl][1,2,4]triazolo[4,3-a]pyridin-3-yl}propan-2-ol] | 28.1%
OC(C1CC1)C(F)(F)c1nnc2ccc(-c3ccc(OC(F)(F)F)cc3)cn12 (stereo not shown) [BHN-166, 1-cyclopropyl-2,2-difluoro-2-{6-[4-(trifluoromethoxy)phenyl][1,2,4]triazolo[4,3-a]pyridin-3-yl}ethanol] | 29.5%
CCOC(=O)COCC(F)(F)c1nnc2ccc(-c3ccc(OC(F)(F)F)cc3)cn12 [BHN-167, ethyl (2,2-difluoro-2-{6-[4-(trifluoromethoxy)phenyl][1,2,4]triazolo[4,3-a]pyridin-3-yl}ethoxy)acetate] | 45.8%
C/C(=C\C#N)c1ccc(-c2ccc3nnc(C(F)(F)F)n3c2)cc1 [BHN-169, (2E)-3-{4-[3-(trifluoromethyl)[1,2,4]triazolo[4,3-a]pyridin-6-yl]phenyl}but-2-enenitrile] | 30.5%
FC(F)(F)Oc1ccc(-c2ccc3nnc(Sc4ccccc4)n3c2)cc1 [BHN-170, 3-(phenylsulfanyl)-6-[4-(trifluoromethoxy)phenyl][1,2,4]triazolo[4,3-a]pyridine] | 66.2%
FC(F)(F)Oc1ccc(-c2ccc3nnc(C#CC4CC4)n3c2)cc1 [BHN-171, 3-(cyclopropylethynyl)-6-[4-(trifluoromethoxy)phenyl][1,2,4]triazolo[4,3-a]pyridine] | 49.3%
FC(F)(F)Oc1ccc(-c2ccc3nnc(C(F)(F)COCc4ccccn4)n3c2)cc1 [BHN-172, 3-[1,1-difluoro-2-(pyridin-2-ylmethoxy)ethyl]-6-[4-(trifluoromethoxy)phenyl][1,2,4]triazolo[4,3-a]pyridine] | 30.7%
CC(C)(O)C#Cc1nnc2ccc(-c3ccc(OC(F)(F)F)cc3)cn12 [BHN-173, 2-methyl-4-{6-[4-(trifluoromethoxy)phenyl][1,2,4]triazolo[4,3-a]pyridin-3-yl}but-3-yn-2-ol] | 30.8%
CNC(=O)c1cc(-c2ccc3nnc(C(F)(F)F)n3c2)ccc1OC(F)(F)F [BHN-174, N-methyl-2-(trifluoromethoxy)-5-[3-(trifluoromethyl)[1,2,4]triazolo[4,3-a]pyridin-6-yl]benzamide] | 16%
CS(=O)(=O)NCC(F)(F)c1nnc2ccc(-c3ccc(OC(F)(F)F)cc3)cn12 [BHN-175, N-(2,2-difluoro-2-{6-[4-(trifluoromethoxy)phenyl][1,2,4]triazolo[4,3-a]pyridin-3-yl}ethyl)methanesulfonamide] | 16.3%
CC(C)(O)C(F)(F)c1nnc2ccc(-c3ccc(OC(F)(F)F)cc3)cn12 [BHN-176, 1,1-difluoro-2-methyl-1-{6-[4-(trifluoromethoxy)phenyl][1,2,4]triazolo[4,3-a]pyridin-3-yl}propan-2-ol] | 15.2%

Reference: US8952034B2, “Fused heterocyclic compounds as ion channel modulators” (Gilead Sciences, Inc., priority 2009, dated 2015)
